In PMC11750672, “The in vivo metabolic pathway of Deg-AZM and in vitro investigations into the contribution of drug metabolizing enzymes and drug transporters in the drug interactions of Deg-AZM, a clinical-stage new transgelin agonist” (Frontiers in Pharmacology, 2025):

Assays:
Format in all cases: in vitro ADME
CYP2C9 [1] = biological target: T1, CYP2C9 (Homo sapiens, UniProt P11712); experiment: HLM phenotyping assay with CYP2C9 inhibitor sulfaphenazole; conditions: 1 μM, HLM 0.5 mg/mL, NADPH, 90 min, with 10 µM sulfaphenazole
T1 construct: from tissue; host or cells: human liver microsomes
T1 sequence (P11712 whole entry): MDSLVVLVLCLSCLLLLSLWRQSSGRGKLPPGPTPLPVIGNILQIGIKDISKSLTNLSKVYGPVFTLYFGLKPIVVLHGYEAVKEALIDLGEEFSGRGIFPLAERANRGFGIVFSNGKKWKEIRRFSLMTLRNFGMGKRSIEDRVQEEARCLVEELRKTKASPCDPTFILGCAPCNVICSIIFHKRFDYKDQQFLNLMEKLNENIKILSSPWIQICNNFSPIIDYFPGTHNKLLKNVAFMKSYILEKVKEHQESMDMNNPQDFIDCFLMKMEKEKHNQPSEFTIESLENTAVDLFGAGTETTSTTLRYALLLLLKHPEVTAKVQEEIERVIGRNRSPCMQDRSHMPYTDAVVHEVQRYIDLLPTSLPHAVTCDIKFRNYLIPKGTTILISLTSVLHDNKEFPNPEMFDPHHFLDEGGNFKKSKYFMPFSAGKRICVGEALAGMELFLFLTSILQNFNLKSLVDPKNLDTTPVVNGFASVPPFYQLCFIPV
Protocol: Deg-AZM (1 μM) was treated with pooled HLM (0.5 mg/mL) and NADPH (1 mM) for 90 min with or without seven specific inhibitors (10 µM furafylline for CYP1A2, 10 µM ticlopidine for CYP2B6, 5 µM montelukast for CYP2C8, 10 µM sulfaphenazole for CYP2C9, 10 µM ticlopidine for CYP2C19, 2.5 µM quinidine for CYP2D6, 1 µM ketoconazole for CYP3A). Isoform-selective probe substrates, 10 µM phenacetin for CYP1A2, 20 µM bupropion for CYP2B6, 2 µM amodiaquine for CYP2C8, 5 µM diclofenac for CYP2C9, 20 µM S-mephenytoin for CYP2C19, 5 µM bufuralol for CYP2D6, 2 µM midazolam for CYP3A4, were used as positive controls.

CYP2C9 [2] = biological target: T1, CYP2C9; experiment: CYP inhibition in HLMs; conditions: HLM 0.035 mg/mL, probe diclofenac, 60 min
Protocol: (§1) CYP inhibition potential of Deg-AZM was assessed in NADPH-fortified HLMs (0.5 mg/mL for CYP1A2, CYP2B6, CYP2C19 and CYP2D6 system, 0.035 mg/mL for CYP2C9 system, 0.05 mg/mL for CYP3A4 system, and 0.025 mg/mL for CYP2C8 system) using CYP probe substrates (same as the positive controls in HLM phenotyping assays). Deg-AZM in triplicates (0, 0.2, 0.6, 2.0, 6.0, 20, and 60 μM) was treated with each probe of CYP1A2 (20 min), CYP2B6 (20 min), CYP2C8 (10 min), CYP2C9 (60 min), CYP2C19 (45 min), CYP2D6 (30 min) and CYP3A4 (15 min). Probe substrate metabolites were analyzed by LC-MS/MS and the peak area ratios of analytes to internal standard (Indapamide) were calculated. The activity of the CYP450 enzyme subtype is directly proportional to the concentration of the corresponding probe substrate metabolites. The average of the measured values of each group was calculated, the control tube value was set as 100%, the residual probe substrate metabolites was calculated in the presence of positive inhibitors and Deg-AZM at series concentration. IC50 values were calculated by the dose-response model (nonlinear regression) in GraphPad Prism software.

CYP1A2 = biological target: T2, CYP1A2 (Homo sapiens, UniProt P05177); experiment: CYP inhibition in HLMs; conditions: HLM 0.5 mg/mL, probe phenacetin, 20 min
T2 construct: from tissue; host or cells: human liver microsomes
T2 sequence (P05177 1-516): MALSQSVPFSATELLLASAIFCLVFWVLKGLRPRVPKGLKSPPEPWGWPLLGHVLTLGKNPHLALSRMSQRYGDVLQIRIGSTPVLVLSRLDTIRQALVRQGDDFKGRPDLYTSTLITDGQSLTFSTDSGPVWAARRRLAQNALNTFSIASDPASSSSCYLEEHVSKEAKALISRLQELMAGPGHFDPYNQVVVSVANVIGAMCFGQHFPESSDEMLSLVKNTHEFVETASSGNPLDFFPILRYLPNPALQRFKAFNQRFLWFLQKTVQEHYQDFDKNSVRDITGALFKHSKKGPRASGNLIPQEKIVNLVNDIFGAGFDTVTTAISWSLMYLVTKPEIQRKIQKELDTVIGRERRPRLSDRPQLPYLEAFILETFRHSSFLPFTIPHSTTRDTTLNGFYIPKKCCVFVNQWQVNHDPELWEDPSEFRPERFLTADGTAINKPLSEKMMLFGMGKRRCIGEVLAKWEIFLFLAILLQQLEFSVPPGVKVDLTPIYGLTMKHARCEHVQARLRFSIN
Protocol: as §1

CYP3A4 = biological target: T3, CYP3A4 (Homo sapiens, UniProt P08684); experiment: CYP inhibition in HLMs; conditions: HLM 0.05 mg/mL, probe midazolam, 15 min
T3 construct: from tissue; host or cells: human liver microsomes
T3 sequence (P08684 whole entry): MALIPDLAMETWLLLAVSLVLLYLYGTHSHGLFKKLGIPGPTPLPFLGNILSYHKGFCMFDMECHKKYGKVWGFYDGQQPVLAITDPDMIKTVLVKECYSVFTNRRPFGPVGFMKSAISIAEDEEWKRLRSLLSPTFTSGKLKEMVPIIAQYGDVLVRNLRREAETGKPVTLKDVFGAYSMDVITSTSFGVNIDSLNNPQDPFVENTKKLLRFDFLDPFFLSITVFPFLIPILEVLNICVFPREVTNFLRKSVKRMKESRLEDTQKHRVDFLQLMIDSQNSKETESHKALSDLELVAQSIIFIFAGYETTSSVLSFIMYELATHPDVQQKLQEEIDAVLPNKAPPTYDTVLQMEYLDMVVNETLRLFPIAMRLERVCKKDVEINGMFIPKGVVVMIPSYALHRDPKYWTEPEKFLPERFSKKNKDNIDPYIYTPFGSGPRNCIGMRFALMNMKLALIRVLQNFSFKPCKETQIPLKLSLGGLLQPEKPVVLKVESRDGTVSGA
Protocol: as §1

CYP2C8 = biological target: T4, CYP2C8 (Homo sapiens, UniProt P10632); experiment: CYP inhibition in HLMs; conditions: HLM 0.025 mg/mL, probe amodiaquine, 10 min
T4 construct: from tissue; host or cells: human liver microsomes
T4 sequence (P10632 1-490): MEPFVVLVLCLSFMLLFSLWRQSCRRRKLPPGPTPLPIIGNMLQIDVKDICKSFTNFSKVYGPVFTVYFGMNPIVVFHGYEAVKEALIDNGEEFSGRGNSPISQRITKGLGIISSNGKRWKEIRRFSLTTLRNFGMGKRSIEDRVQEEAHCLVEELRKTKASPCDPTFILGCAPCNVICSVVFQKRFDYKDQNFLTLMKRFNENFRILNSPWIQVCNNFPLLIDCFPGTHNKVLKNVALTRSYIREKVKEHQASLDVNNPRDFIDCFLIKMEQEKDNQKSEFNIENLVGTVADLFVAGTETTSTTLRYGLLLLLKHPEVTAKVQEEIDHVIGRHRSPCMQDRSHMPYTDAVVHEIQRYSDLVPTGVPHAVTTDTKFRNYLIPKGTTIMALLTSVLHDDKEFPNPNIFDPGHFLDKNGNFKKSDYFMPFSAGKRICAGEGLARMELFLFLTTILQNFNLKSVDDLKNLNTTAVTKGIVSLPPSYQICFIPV
Protocol: as §1

CYP2C19 = biological target: T5, CYP2C19 (Homo sapiens, UniProt P33261); experiment: CYP inhibition in HLMs; conditions: HLM 0.5 mg/mL, probe S-mephenytoin, 45 min
T5 construct: from tissue; host or cells: human liver microsomes
T5 sequence (P33261 whole entry): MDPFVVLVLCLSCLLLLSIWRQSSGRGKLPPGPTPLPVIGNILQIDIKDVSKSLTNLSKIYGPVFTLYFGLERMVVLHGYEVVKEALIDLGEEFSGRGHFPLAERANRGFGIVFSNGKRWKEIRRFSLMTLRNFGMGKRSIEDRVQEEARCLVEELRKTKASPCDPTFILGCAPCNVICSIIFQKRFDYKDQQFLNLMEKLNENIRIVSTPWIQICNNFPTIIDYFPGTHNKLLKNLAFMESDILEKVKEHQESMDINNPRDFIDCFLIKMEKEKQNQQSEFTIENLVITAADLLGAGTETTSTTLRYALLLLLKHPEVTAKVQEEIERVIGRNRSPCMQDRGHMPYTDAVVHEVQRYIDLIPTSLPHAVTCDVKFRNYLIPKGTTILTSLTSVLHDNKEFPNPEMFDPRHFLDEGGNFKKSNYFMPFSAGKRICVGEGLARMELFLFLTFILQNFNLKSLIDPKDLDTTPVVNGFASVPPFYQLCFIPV
Protocol: as §1

CYP2B6 = biological target: T6, CYP2B6 (Homo sapiens, UniProt P20813); experiment: CYP inhibition in HLMs; conditions: HLM 0.5 mg/mL, probe bupropion, 20 min
T6 construct: from tissue; host or cells: human liver microsomes
T6 sequence (P20813 1-491): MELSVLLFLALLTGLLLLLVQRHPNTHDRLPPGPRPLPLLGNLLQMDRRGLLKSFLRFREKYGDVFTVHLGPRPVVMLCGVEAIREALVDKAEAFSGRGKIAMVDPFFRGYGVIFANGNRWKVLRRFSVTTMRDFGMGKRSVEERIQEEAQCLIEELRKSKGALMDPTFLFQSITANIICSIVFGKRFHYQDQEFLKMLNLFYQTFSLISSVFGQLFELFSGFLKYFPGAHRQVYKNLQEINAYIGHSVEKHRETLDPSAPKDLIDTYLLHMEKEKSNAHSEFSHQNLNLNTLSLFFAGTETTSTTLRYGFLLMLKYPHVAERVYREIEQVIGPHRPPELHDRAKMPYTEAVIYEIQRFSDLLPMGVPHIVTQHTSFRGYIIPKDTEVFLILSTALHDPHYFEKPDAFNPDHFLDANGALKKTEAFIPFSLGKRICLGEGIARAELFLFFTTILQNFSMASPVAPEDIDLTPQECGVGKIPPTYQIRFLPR
Protocol: as §1

CYP2D6 = biological target: T7, CYP2D6 (Homo sapiens, UniProt P10635); experiment: CYP inhibition in HLMs; conditions: HLM 0.5 mg/mL, probe bufuralol, 30 min
T7 construct: from tissue; host or cells: human liver microsomes
T7 sequence (P10635 whole entry): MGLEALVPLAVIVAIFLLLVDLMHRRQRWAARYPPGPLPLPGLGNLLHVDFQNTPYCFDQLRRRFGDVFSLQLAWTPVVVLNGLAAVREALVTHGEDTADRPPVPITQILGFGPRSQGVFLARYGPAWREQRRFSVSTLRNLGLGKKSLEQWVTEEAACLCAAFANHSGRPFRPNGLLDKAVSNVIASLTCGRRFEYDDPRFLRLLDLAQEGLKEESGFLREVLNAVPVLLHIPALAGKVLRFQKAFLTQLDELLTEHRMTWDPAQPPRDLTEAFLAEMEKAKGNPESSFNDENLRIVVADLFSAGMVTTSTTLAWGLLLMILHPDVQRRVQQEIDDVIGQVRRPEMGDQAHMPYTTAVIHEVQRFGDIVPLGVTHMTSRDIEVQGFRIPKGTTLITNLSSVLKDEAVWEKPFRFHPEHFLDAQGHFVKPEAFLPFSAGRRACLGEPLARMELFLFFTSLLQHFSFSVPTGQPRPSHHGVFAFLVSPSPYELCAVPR
Protocol: as §1

Deg-AZM remaining (CYP2C9 [1]): 67.5%
IC50 (CYP2C9 [2]): > 60 µM
IC50 (CYP1A2): > 60 µM
IC50 (CYP3A4): > 60 µM
IC50 (CYP2C8): > 60 µM
IC50 (CYP2C19): > 60 µM
IC50 (CYP2B6): 8.97 µM
IC50 (CYP2D6): 7.89 µM
SMILES: CCC1OC(=O)C(C)C(O)C(C)C(O)C(C)(O)CC(C)CN(C)C(C)C(O)C1(C)O (centres unmarked) [Deg-AZM, Deglycosylated azithromycin]
